We go through 1 compound from US20090118202A1, “COMPOSITIONS AND METHODS OF TREATING HYPERTENSION WITH TANNIN COMPLEXES” (Texas Tech University, priority 2007, published 2009).

One test deals with AT1 receptor. Put plainly: AT1 specific AngII binding in WB cells exposed to tannic acid. It counts as cell-based, rat. The note with it: pretreatment of cells with the inhibitor. Here is the method: The present invention provides the use of hydrolysable tannic acids to affect angiotensin type 1 (AT1) receptor expression. The present invention used WB (i.e., a continuously passaged rat liver epithelial cell line) which expresses the native AT1 receptor. Under normal culture conditions, cells were exposed to tannic acid and changes in receptor expression and signaling intermediates were determined.
FIG. 3A is an image of a plot illustrating the effects of tannic acid on native AT1, rat liver cells were exposed to tannic acid at indicated concentration for 20 hours.

The subject of another test is MAP-kinases p42 and p44. Description: MAP-kinase phosphorylation in rat liver cells exposed to tannic acid (Western blot). It counts as cell-based. As to conditions: pretreatment of cells with the inhibitor. Here is the method:
FIGS. 6A-6C are images of a Western blot illustrating rat liver cells exposed to tannic acid in the presence or absence of the MAP-Kinase specific cell permeable inhibitor PD 98059 for 20 hours and total cell extracts were prepared. Equal amount of proteins were resolved by 8% polyacrylamide gel electrophoresis and immunoblotted with phospho-specific MAP-Kinase antibody in FIG. 6A, anti-MAP-kinase antibody in FIG. 6B, AT1 specific antibody in FIG. 6C top or anti-beta-actin antibody in FIG. 6C bottom. Immunoreactive bands were visualized using a chemiluminescence Western blotting system according to the manufacturer's instruction. In each plate protein concentration was determined using Bio-Rad protein assay reagent.
A general note: A western blot detects proteins with antibodies after separation by electrophoresis.

`COc1cccc(-c2cc(=O)c3ccccc3o2)c1N` [MAP kinase specific inhibitor, PD98059]: in the test with AT1 receptor, the “prevention of tannic acid induced down regulation of the AT1 receptor” value is listed as “ineffective”. Also, the “prevention of tannic acid induced MAP-kinases phosphorylation” value in the test on MAP-kinases p42 and p44 is listed as “ineffective”.
